# According to patent US20230398163A1, “FRUIT EXTRACTS FOR USE IN THE TREATMENT OF NEURODEGENERATIVE DISEASES” (NEUROSCIENCE PHARMA SPA, priority 2020, published 2023):
# Tested on: PC12 cells
# Experiment: MTT cell viability assay, extract alone
# Assay type: cell-based
# Details: addition of FCCP
# Method: Cellular health was quantified using a 3-(4,5-dimethylthizol-2-yl)-2,5-diphenyltetrazolium bromide (MTT) assay, which indicates cell viability. Cultured PC12 cells were incubated in MTT (1 mg/ml) in 1X DPBS (Dulbecco's phosphate-buffered saline) for 30 minutes, in the presence (or absence) of maqui berry extract provided a concentrations ranging from 0.000081 mg/l to 81 mg/l. Precipitated MTT was dissolved using isopropanol for 15 minutes prior to being added to the culture medium. The cell absorbance was measured in a microplate reader (Novostar, BGM, Germany) at two wavelengths: 560 nm and 620 nm. The difference in cellular absorbance was quantified between the two wavelengths using NovoStar software across experimental conditions.
structure (smiles),measurement,value
"N#CC(C#N)=NNc1ccc(OC(F)(F)F)cc1 [FCCP, Carbonyl cyanide 4-(trifluoromethoxy)phenylhydrazone]",cell viability percent relative to control (MTT),significant decrease in cell viability percent relative to control levels
